Reference: US20170107179A1 (Tetraphase Pharmaceuticals, Inc., priority 2010, published 2017)

Tests used:
S. aureus Smith = experiment: Mouse systemic infection (septicemia) model, CD-1 mice; conditions: Staphylococcus aureus, in Mus musculus, 48 h; for responders at 3 mg/kg: iv, read-out: Percent survival at 48 hours, IV (3 mg/kg); for responders at 30 mg/kg: po, read-out: Percent survival at 48 hours, PO (30 mg/kg)
[1] = test system: Gram-negative and Gram-positive organisms (clinical isolates); experiment: Broth microdilution MIC against clinical isolates (CLSI M7-A8), Table 9; assay type: cell-based
[2] = Stenotrophomonas maltophilia, n=29

CCC(C)(C)N1Cc2c(O)c3c(c(N(C)C)c2C1)C[C@H]1C[C@H]2[C@H](N(C)C)C(O)=C(C(N)=O)C(=O)[C@@]2(O)C(O)=C1C3=O [Compound 103]
responders at 3 mg/kg (S. aureus Smith): 83%
responders at 30 mg/kg (S. aureus Smith): 100%

CC(C)[C@@H](C)N1Cc2c(O)c3c(c(F)c2C1)C[C@H]1C[C@H]2[C@H](N(C)C)C(O)=C(C(N)=O)C(=O)[C@@]2(O)C(O)=C1C3=O [Compound 106]
responders at 3 mg/kg (S. aureus Smith): 17%
responders at 30 mg/kg (S. aureus Smith): 20%

CC[C@H](C)N1Cc2c(O)c3c(c(Cl)c2C1)C[C@H]1C[C@H]2[C@H](N(C)C)C(O)=C(C(N)=O)C(=O)[C@@]2(O)C(O)=C1C3=O [Compound 110]
responders at 3 mg/kg (S. aureus Smith): 33%
responders at 30 mg/kg (S. aureus Smith): 50%

CN(C)[C@@H]1C(O)=C(C(N)=O)C(=O)[C@@]2(O)C(O)=C3C(=O)c4c(O)c5c(c(C(F)(F)F)c4C[C@H]3C[C@@H]12)CN(C(C)(C)C)C5 [Compound 112]
responders at 3 mg/kg (S. aureus Smith): 100%
responders at 30 mg/kg (S. aureus Smith): 20%

CN(C)c1c2c(c(O)c3c1C[C@H]1C[C@H]4[C@H](N(C)C)C(O)=C(C(N)=O)C(=O)[C@@]4(O)C(O)=C1C3=O)CN(C(C)(C)C)C2 [Compound 115]
responders at 3 mg/kg (S. aureus Smith): 100%
responders at 30 mg/kg (S. aureus Smith): 100%

CN(C)[C@@H]1C(O)=C(C(N)=O)C(=O)[C@@]2(O)C(O)=C3C(=O)c4c(O)c5c(c(F)c4C[C@H]3C[C@@H]12)CN(C(C)(C)C1CC1)C5 [Compound 118]
responders at 3 mg/kg (S. aureus Smith): 17%
responders at 30 mg/kg (S. aureus Smith): 50%

CCC(C)(C)N1Cc2c(O)c3c(c(OC)c2C1)C[C@H]1C[C@H]2[C@H](N(C)C)C(O)=C(C(N)=O)C(=O)[C@@]2(O)C(O)=C1C3=O [Compound 119]
responders at 3 mg/kg (S. aureus Smith): 83%
responders at 30 mg/kg (S. aureus Smith): 75%

CC[C@H](C)N1Cc2c(O)c3c(c(F)c2C1)C[C@H]1C[C@H]2[C@H](N(C)C)C(O)=C(C(N)=O)C(=O)[C@@]2(O)C(O)=C1C3=O [Compound 123]
responders at 3 mg/kg (S. aureus Smith): 33%
responders at 30 mg/kg (S. aureus Smith): 67%

COc1c2c(c(O)c3c1C[C@H]1C[C@H]4[C@H](N(C)C)C(O)=C(C(N)=O)C(=O)[C@@]4(O)C(O)=C1C3=O)CN(C(C)(C)C)C2 [Compound 125]
responders at 3 mg/kg (S. aureus Smith): 100%
responders at 30 mg/kg (S. aureus Smith): 33%

CC(C)N1Cc2c(O)c3c(c(C(F)(F)F)c2C1)C[C@H]1C[C@H]2[C@H](N(C)C)C(O)=C(C(N)=O)C(=O)[C@@]2(O)C(O)=C1C3=O [Compound 126]
responders at 3 mg/kg (S. aureus Smith): 83%
responders at 30 mg/kg (S. aureus Smith): 100%

CC[C@@H](C)N1Cc2c(O)c3c(c(C(F)(F)F)c2C1)C[C@H]1C[C@H]2[C@H](N(C)C)C(O)=C(C(N)=O)C(=O)[C@@]2(O)C(O)=C1C3=O [Compound 128]
responders at 3 mg/kg (S. aureus Smith): 17%
responders at 30 mg/kg (S. aureus Smith): 0%

CCC(C)(C)N1Cc2c(O)c3c(c(F)c2C1)C[C@H]1C[C@H]2[C@H](N(C)C)C(O)=C(C(N)=O)C(=O)[C@@]2(O)C(O)=C1C3=O [Compound 129]
responders at 3 mg/kg (S. aureus Smith): 50%
responders at 30 mg/kg (S. aureus Smith): 0%

CC[C@@H](C)N1Cc2c(O)c3c(c(F)c2C1)C[C@H]1C[C@H]2[C@H](N(C)C)C(O)=C(C(N)=O)C(=O)[C@@]2(O)C(O)=C1C3=O [Compound 130]
responders at 3 mg/kg (S. aureus Smith): 33%
responders at 30 mg/kg (S. aureus Smith): 83%

CN(C)CC(=O)N1Cc2c(O)c3c(c(F)c2C1)C[C@H]1C[C@H]2[C@H](N(C)C)C(O)=C(C(N)=O)C(=O)[C@@]2(O)C(O)=C1C3=O [Compound 131]
responders at 3 mg/kg (S. aureus Smith): 100%
responders at 30 mg/kg (S. aureus Smith): 17%

CN(C)[C@@H]1C(O)=C(C(N)=O)C(=O)[C@@]2(O)C(O)=C3C(=O)c4c(O)c5c(c(F)c4C[C@H]3C[C@@H]12)CN(C1CCC1)C5 [Compound 132]
responders at 3 mg/kg (S. aureus Smith): 50%
responders at 30 mg/kg (S. aureus Smith): 50%

CC(C)N1Cc2c(O)c3c(c(N(C)C)c2C1)C[C@H]1C[C@H]2[C@H](N(C)C)C(O)=C(C(N)=O)C(=O)[C@@]2(O)C(O)=C1C3=O [Compound 135]
responders at 3 mg/kg (S. aureus Smith): 100%
responders at 30 mg/kg (S. aureus Smith): 100%

CC(C)[C@H](C)N1Cc2c(O)c3c(c(F)c2C1)C[C@H]1C[C@H]2[C@H](N(C)C)C(O)=C(C(N)=O)C(=O)[C@@]2(O)C(O)=C1C3=O [Compound 137]
responders at 3 mg/kg (S. aureus Smith): 33%
responders at 30 mg/kg (S. aureus Smith): 33%

CC(C)N1Cc2c(O)c3c(c(F)c2C1)C[C@H]1C[C@H]2[C@H](N(C)C)C(O)=C(C(N)=O)C(=O)[C@@]2(O)C(O)=C1C3=O [Compound 143]
responders at 3 mg/kg (S. aureus Smith): 83%
responders at 30 mg/kg (S. aureus Smith): 100%

CN(C)[C@@H]1C(O)=C(C(N)=O)C(=O)[C@@]2(O)C(O)=C3C(=O)c4c(O)c5c(c(Cl)c4C[C@H]3C[C@@H]12)CN(C(C)(C)C)C5 [Compound 144]
responders at 3 mg/kg (S. aureus Smith): 50%
responders at 30 mg/kg (S. aureus Smith): 0%

CN(C)[C@@H]1C(O)=C(C(N)=O)C(=O)[C@@]2(O)C(O)=C3C(=O)c4c(O)c5c(c(F)c4C[C@H]3C[C@@H]12)CN(C(=O)CN1CC[C@H](F)C1)C5 [Compound 147]
responders at 3 mg/kg (S. aureus Smith): 83%
responders at 30 mg/kg (S. aureus Smith): 0%

CCCN1Cc2c(O)c3c(c(Cl)c2C1)C[C@H]1C[C@H]2[C@H](N(C)C)C(O)=C(C(N)=O)C(=O)[C@@]2(O)C(O)=C1C3=O [Compound 149]
responders at 3 mg/kg (S. aureus Smith): 17%
responders at 30 mg/kg (S. aureus Smith): 0%

CCC(C)(C)N1Cc2c(O)c3c(c(Cl)c2C1)C[C@H]1C[C@H]2[C@H](N(C)C)C(O)=C(C(N)=O)C(=O)[C@@]2(O)C(O)=C1C3=O [Compound 150]
responders at 3 mg/kg (S. aureus Smith): 0%
responders at 30 mg/kg (S. aureus Smith): 0%

CCCN1CCc2c(O)c3c(c(F)c2C1)C[C@H]1C[C@H]2[C@H](N(C)C)C(O)=C(C(N)=O)C(=O)[C@@]2(O)C(O)=C1C3=O [Compound 304]
responders at 3 mg/kg (S. aureus Smith): 0%
responders at 30 mg/kg (S. aureus Smith): 17%

CC(C)CN1CC(=O)Nc2c(O)c3c(c(F)c2C1)C[C@H]1C[C@H]2[C@H](N(C)C)C(O)=C(C(N)=O)C(=O)[C@@]2(O)C(O)=C1C3=O [Compound 400]
responders at 3 mg/kg (S. aureus Smith): 100%
responders at 30 mg/kg (S. aureus Smith): 0%

C[C@@H]1C(=O)Nc2c(O)c3c(c(F)c2CN1C)C[C@H]1C[C@H]2[C@H](N(C)C)C(O)=C(C(N)=O)C(=O)[C@@]2(O)C(O)=C1C3=O [Compound 406]
responders at 3 mg/kg (S. aureus Smith): 100%
responders at 30 mg/kg (S. aureus Smith): 40%

CC(C)C[C@@H]1CNc2c(O)c3c(c(F)c2CN1)C[C@H]1C[C@H]2[C@H](N(C)C)C(O)=C(C(N)=O)C(=O)[C@@]2(O)C(O)=C1C3=O [Compound 408]
responders at 3 mg/kg (S. aureus Smith): 100%
responders at 30 mg/kg (S. aureus Smith): 0%

colistin
MIC50 ([1]; Acinetobacter lwoffii, n=29): ≦0.12 μg/ml
MIC90 ([1]; Acinetobacter lwoffii, n=29): >2 µg/mL
MIC50 ([1]; Enterobacter aerogenes, n=30): ≦0.12 μg/ml
MIC90 ([1]; Enterobacter aerogenes, n=30): ≦0.12 μg/ml
MIC50 ([1]; Enterobacter cloacae, n=29): ≦0.12 μg/ml
MIC90 ([1]; Enterobacter cloacae, n=29): >2 µg/mL
MIC50 ([1]; Escherichia coli, n=40): 0.25 µg/mL
MIC90 ([1]; Escherichia coli, n=40): 0.5 µg/mL
MIC50 ([1]; Kiebsielia oxytoca, n=30): ≦0.12 μg/ml
MIC90 ([1]; Kiebsielia oxytoca, n=30): 0.25 µg/mL
MIC50 ([1]; Klebsiella pneumonia, n=27): 0.25 µg/mL
MIC90 ([1]; Klebsiella pneumonia, n=27): 0.5 µg/mL
MIC50 ([1]; Morganella morganii, n=30): >2 µg/mL
MIC90 ([1]; Morganella morganii, n=30): >2 µg/mL
MIC50 ([1]; Proteus vulgaris, n=29): >2 µg/mL
MIC90 ([1]; Proteus vulgaris, n=29): >2 µg/mL
MIC50 ([1]; Salmonella species, n=30): ≦0.12 μg/ml
MIC90 ([1]; Salmonella species, n=30): 0.5 µg/mL
MIC50 ([1]; Serratia marcescens, n=30): >2 µg/mL
MIC90 ([1]; Serratia marcescens, n=30): >2 µg/mL
MIC50 ([1]; Shigella species, n=30): ≦0.12 μg/ml
MIC90 ([1]; Shigella species, n=30): ≦0.12 μg/ml
MIC50 [1, 2]: 0.25 µg/mL
MIC90 [1, 2]: >2 µg/mL
